Data reported in patent US20250221997A1, “TYK2 INHIBITOR FORMULATIONS AND METHODS OF MAKING THE SAME” (Takeda Pharmaceutical Company Limited, priority 2022, published 2025).
≈ marks a conversion by molar mass, not a printed value. Entries after “also recorded” stand apart in the source; their conditions may differ. One block for each molecule: values may come before it.

Tests used:
Type in all cases: physicochemical
[1] = Solubility of drug substance in excipient Vitamin E TPGS
Text: Vitamin E TPGS is a commercially available, non-ionic surfactant, derived from Vitamin E. It is commonly used to enhance the bioavailability of orally administered poorly water-soluble drugs.

[2] = pKa, dissociation constant and pH of saturated aqueous solution; details: read-out: pKa of the protonated form
Procedure: The pKa of the protonated form of Compound 1 was determined to be 1.94±0.01. The pH of a saturated aqueous solution of Compound 1 was 8.6.

[3] = Solubility of Compound 1 polymorphs in aqueous systems, buffer solutions and biorelevant media; details: for Aqueous Solubility: Form C Lot: a, Form A Lot: b
[4] = Polymorph screening, competitive slurry studies and humidity storage (form stability)
Text: The key formulation challenge presented by Compound 1 was poor aqueous solubility. This could possibly limit absorption in vivo.

[5] = Hygroscopicity (water sorption vs relative humidity)

solubility in the excipient Vitamin E TPGS [1]: high solubility
pKa [2]: 1.94
solubility at 48 h ([3]; FaSSGF, pH 1.42, fassgf or other biorelevant, thermodynamic from solid): 34.6 µg/mL (≈ 75.1 µM)
solubility at 48 h ([3]; aqueous buffer, thermodynamic from solid, Initial Buffer pH 2.98, pH at 48 Hours 3.01, average of two runs): 18.9 µg/mL (≈ 41 µM)
solubility at 48 h ([3]; aqueous buffer, thermodynamic from solid, Initial Buffer pH 4.46, pH at 48 Hours 4.49, average of two runs): 13.3 µg/mL (≈ 28.9 µM)
solubility at 48 h ([3]; aqueous buffer, thermodynamic from solid, Initial Buffer pH 6.81, pH at 48 Hours 6.75, average of two runs): 4.1 µg/mL (≈ 8.9 µM)
solubility at 48 h ([3]; pH 8.6, thermodynamic from solid, Unbuffered water, pH at 48 Hours 8.6, average of three runs): 5.5 µg/mL (≈ 11.9 µM)
solubility at 48 h ([3]; simulated gastric fluid, thermodynamic from solid, Initial Buffer pH 1.21, pH at 48 Hours 1.19, average of two runs): 58.1 µg/mL (≈ 126 µM)
solubility at 48 h ([3]; thermodynamic from solid, FaSSIF (pH 1.64), pH at 48 Hours 1.50, average of two runs): 29.1 µg/mL (≈ 63.2 µM)
solubility at 48 h ([3]; thermodynamic from solid, FeSSIF (pH 5.03), pH at 48 Hours 5.03, average of two runs): 41 µg/mL (≈ 89 µM)
SMILES: CNc1cc(Nc2cccn(-c3ccccn3)c2=O)nc2c(C(=O)N[C@@H]3CC[C@H]3OC)cnn12 [Compound 1]

Conversion of Form C to Form A ([4]; in water itself after 1 day): not observed
water activity, aw, above which anhydrous Form C converts to hydrate Form A ([4]; solvent slurries): 0.62-0.82
Conversion of Form C to Form A ([4]; storage at 90% RH at room temperature for 11 days): no conversion to Form A was observed
Hygroscopicity [5]: Limited hygroscopicity
Hygroscopicity, wt gain ([5]; at 75% RH): (1.75% wt gain at 75% RH)
water sorption ([5]; between 5-95% relative humidity): 1.75%
Aqueous Solubility ([3]; 10 mM HCl, pH 2.0): 58 µg/mL
Aqueous Solubility ([3]; 50 mM Acetate buffer, pH 5.0): 13 µg/mL
Aqueous Solubility ([3]; 50 mM Phosphate buffer, pH 6.8): 4 µg/mL
solubility ([3]; FaSSIF, pH 6.5, fassif, thermodynamic from solid): 29 µg/mL (≈ 63 µM)
Aqueous Solubility ([3]; FaSSIF, pH 6.5): 29 µg/mL
Aqueous Solubility ([3]; FcSSIF, pH 5.0): 41 µg/mL
Aqueous Solubility ([3]; SGF, pH 1.2 (0.1% Triton X100)): 35 µg/mL
solubility ([3]; aqueous buffer, thermodynamic from solid, 50 mM Acetate buffer, pH 5.0): 13 µg/mL (≈ 28.2 µM)
solubility ([3]; aqueous buffer, thermodynamic from solid, 50 mM Phosphate buffer, pH 6.8): 4 µg/mL (≈ 8.69 µM)
solubility ([3]; aqueous with cosolvent or surfactant or cyclodextrin, thermodynamic from solid, SGF, pH 1.2 (0.1% Triton X100)): 35 µg/mL (≈ 76 µM)
solubility ([3]; simulated gastric fluid, thermodynamic from solid, 10 mM HCl, pH 2.0): 58 µg/mL (≈ 126 µM)
solubility ([3]; thermodynamic from solid, FeSSIF, pH 5.0): 41 µg/mL (≈ 89 µM)
SMILES: CNc1cc(Nc2cccn(-c3ccccn3)c2=O)nc2c(C(=O)N[C@@H]3CC[C@H]3OC)cnn12 [Form C]
relative stability of solid form ([4]; competitive slurry studies / polymorphs observed during development): most stable anhydrous, un-solvated form; also recorded: most stable polymorph observed to date
